For the experiment, the system named is E-cadherin-associated p100/p120. Briefly: E-cadherin immunoprecipitation and p100/p120 immunoblotting, MDCK I cells. The experiment is classed as cell-based. The source says: It has been shown that although some of the p100/p120 in cells is associated with adherens junctions, there is also a large pool that is not complexed with cadherins (at least by immunoprecipitation analysis). […] This procedure served to isolate only that portion of the cellular p100/p120 that associates with the cadherins. Following electrophoresis, and transfer to nitrocellulose, the p100 and p120 present in E-cadherin immunoprecipitates were detected by immunoblotting (Example 9A). […] In both cases, p100/p120 is shown to be present at regions of cell—cell contact.
Whole cell lysates were prepared by rapidly replacing the culture medium in 6.5 mm with hot Laemmli sample buffer, followed by heating at 100° C. for 5 minutes. Immunoprecipitations were carried out at 4° C. Confluent monolayers of cells were washed rapidly with ice cold PBS (containing 0.9 mM CaCl2 and 0.5 mM MgCl2) before addition of 0.5 ml of the appropriate buffer. The filters were then gently scraped, and the lysate was removed and centrifuged at 14000× g. The supernatant was precleared with 10% (w/v) protein A-Sepharose in lysis buffer for 30-60 minutes. Appropriate primary antibodies were added to the lysate, and after 2-3 hours the immunecomplex was isolated, using rabbit anti-mouse secondary antibodies (Jackson Immunoresearch Labs Inc., West Grove, Pa.) and protein A-Sepharose. The beads were washed fives times with lysis buffer, and the bound protein was solubilized in SDS-sample buffer, followed by heating at 100° C. for 5 minutes.
For Immunoprecipitations, Triton lysis buffer or TDS lysis buffer was used. Triton lysis buffer (pH adjusted to 7.4 using NaOH) contained 25 mM Hepes, 1% Triton X-100, 2 mM EDTA, 0.1 M NaCl, 25 mM NaF, 1 mM vanadate, and protease inhibitors. […]
Cell extracts or immunoprecipitates in SDS sample buffer were resolved by SDS-PAGE. […] The filters were then extensively washed in PBS/0.5% Tween-20, and immunoreactive bands were detected by enhanced chemiluminescence (Amersham) following the manufacturers instructions.

SMILES strings stand for the structures.

For `CCCC(=O)O[C@@H]1[C@@H](C)[C@@]2(O)[C@@H](C=C(CO)C[C@]3(O)C(=O)C(C)=C[C@@H]23)[C@@H]2C(C)(C)[C@]12OC(=O)CCC` [PDB, Phorbol-12,13-dibutyrate], the “phosphorylation of E-cadherin-associated p100/p120” value (PDB, Triton lysis buffer, E-cadherin immunoprecipitates) is “is dephosphorylated”. Also, under “PDB, data not shown”, the “phosphorylation of non-E-cadherin-associated p100/p120” value was “subject to dephosphorylation”. For the same compound, where the note is “after addition of PDB”, the “amount of p100 and p120 present in E-cadherin immunoprecipitates” value is listed as “no obvious change”.

Source of the values: patent publication US6407058B1, “Modifying the permeability of physiological barriers” (Eisai Co., Limited, priority 1996, dated 2002).
